Consider 14 compounds from US8450522B2, “Conformationally constrained carboxylic acid derivatives useful for treating metabolic disorders” (Amgen Inc., priority 2008, dated 2013).

For orientation: EC50 means the concentration giving half of the maximal effect. Read a low EC50 as greater potency.

The target in this experiment is GPR40 (Homo sapiens, UniProt O14842). The experiment is described as follows: Cell-based aequorin assay (CHO cells stably transfected with GPR40 and aequorin). Conditions: activation of human GPR40, CHO cells, 0.01% HSA. Further details: expressed in transfected cells. The protocol: Briefly, the Aequorin assays were performed on doubly stable CHO cells expressing GPR40 and Aequorin DNA. […] The luminescence was recorded over a period of 20 seconds with a Microlumat luminometer (Berthold).
Sequence of GPR40 (O14842 whole entry): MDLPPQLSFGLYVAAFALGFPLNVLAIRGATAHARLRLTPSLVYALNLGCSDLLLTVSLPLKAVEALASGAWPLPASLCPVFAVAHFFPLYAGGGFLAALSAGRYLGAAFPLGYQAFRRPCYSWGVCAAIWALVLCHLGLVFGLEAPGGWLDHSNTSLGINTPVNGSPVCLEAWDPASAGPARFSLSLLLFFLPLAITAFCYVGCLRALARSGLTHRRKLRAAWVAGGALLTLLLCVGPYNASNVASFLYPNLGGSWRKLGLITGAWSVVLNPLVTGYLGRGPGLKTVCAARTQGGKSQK
Cell-based aequorin assays were employed to characterize the modulatory activity of compounds on the GPR40 signaling pathway. In an exemplary assay, CHO cells were stably transfected with both GPR40 and Aequorin (Euroscreen). Cells were detached from the tissue culture dish with 2 mL of trypsin (0.25% (w/v)). Trypsinization was halted with 28 mL of Hanks Buffered Salt Solution containing 20 mM Hepes (H/HBSS) and 0.01% fatty acid-free human serum albumin (HSA). Coelantrazine is added to 1 ug/mL, and the cells were incubated for 2 hours at room temperature. Compounds were dissolved in DMSO for preparation of 10 mM stock solutions. Compounds were diluted in H/HBSS containing 0.01% HSA. Serial dilutions of the test compounds were prepared to determine dose response.
Aequorin luminescence measurements were made using an EG&G Berthold 96-well luminometer, and the response was measured over a 20 second interval after cells and compounds were mixed. The maximum relative light units was plotted to determine dose response. The EC50 (effective concentration to reach 50% maximal response) was determined from the dose response plot.

On to `COc1ccc(F)c(-c2ccc(COc3ccc4c(c3)[C@@H](C(C)(C)C(=O)O)CC4)cc2C2=CCCC2(C)C)c1` (single isomer, unassigned) [Example 11, 2-((1S)-6-(((2-(5,5-Dimethyl-1-cyclopenten-1-yl)-2′-fluoro-5′-(methyloxy)-1,1′-biphenyl-4-yl)methyl)oxy)-2,3-dihydro-1H-inden-1-yl)-2-methylpropanoic acid or 2-((1R)-6-(((2-(5,5-dimethyl-1-cyclopenten-1-yl)-2′-fluoro-5′-(methyloxy)-1,1′-biphenyl-4-yl)methyl)oxy)-2,3-dihydro-1H-inden-1-yl)-2-methylpropanoic acid], for which the EC50 lay in the range of 100 to 1000 nM.

Consider `COc1ccc(F)c(-c2ccc(COc3ccc4c(c3)[C@@H](C(C)(C)C(=O)O)CC4)cc2C(C)(C)C)c1` (single isomer, unassigned) [Example 12, 2-((1S)-6-(((2-(1,1-Dimethylethyl)-2′-fluoro-5′-(methyloxy)-1,1′-biphenyl-4-yl)methyl)oxy)-2,3-dihydro-1H-inden-1-yl)-2-methylpropanoic acid or 2-((1R)-6-(((2-(1,1-Dimethylethyl)-2′-fluoro-5′-(methyloxy)-1,1′-biphenyl-4-yl)methyl)oxy)-2,3-dihydro-1H-inden-1-yl)-2-methylpropanoic acid], for which the EC50 lay in the range of 100 to 1000 nM.

`COc1cccc(-c2ccc(COc3ccc4c(c3)[C@@H](CC(=O)O)CC4)cc2C(C)(C)C)c1` (single isomer, unassigned) [Example 25, ((1R)-6-(((2-(1,1-Dimethylethyl)-3′-(methyloxy)-1,1′-biphenyl-4-yl)methyl)oxy)-2,3-dihydro-1H-inden-1-yl)acetic acid or ((1S)-6-(((2-(1,1-dimethylethyl)-3′-(methyloxy)-1,1′-biphenyl-4-yl)methyl)oxy)-2,3-dihydro-1H-inden-1-yl)acetic acid] showed an EC50 of 1000 to 10000 nM.

As to `COc1cccc(-c2ccc(COc3ccc4c(c3)[C@@H]([C@@H](C)C(=O)O)CC4)cc2C(C)(C)C)c1` (single isomer, unassigned) [Example 26, 2-((1R)-6-(((2-(1,1-dimethylethyl)-3′-(methyloxy)-1,1′-biphenyl-4-yl)methyl)-oxy)-2,3-dihydro-1H-inden-1-yl)propanoic acid or stereoisomer thereof], the EC50 lay in the range of 1000 to 10000 nM.

Take `CCC(C)(C)[C@H](OC)c1cc(COc2ccc3c(c2)[C@@H]([C@@H](C)C(=O)O)CC3)ccc1-c1cc(OC)ccc1F` (single isomer, unassigned) [Example 27, 2-((1R)-6-(((2-((1R)-2,2-Dimethyl-1-(methyloxy)butyl)-2′-fluoro-5′-(methyloxy)-1,1′-biphenyl-4-yl)methyl)oxy)-2,3-dihydro-1H-inden-1-yl)propanoic acid (27) or stereoisomer thereof]: the EC50 is 1000 to 10000 nM.

With `C=CC(C)(C)[C@H](O)c1cc(COc2ccc3c(c2)[C@@H]([C@@H](C)C(=O)O)CC3)ccc1-c1cc(OC)ccc1F` (single isomer, unassigned) [Example 28, 2-((1R)-6-(((2′-Fluoro-2-((1S)-1-hydroxy-2,2-dimethyl-3-butenyl)-5′-(methyloxy)-1,1′-biphenyl-4-yl)methyl)oxy)-2,3-dihydro-1H-inden-1-yl)propanoic acid or stereoisomer thereof], the EC50 was in the range of 1000 to 10000 nM.

With `COc1ccc(F)c(-c2ccc(COc3ccc4c(c3)C[C@@H]4CC(=O)O)cc2C(C)(C)C)c1` (single isomer, unassigned) [Example 29, ((7S)-3-((2′-Fluoro-5′-methoxy-2-(2-methyl-2-propanyl)-4-biphenylyl)methoxy)bicycle[4.2.0]octa-1,3,5-trien-7-yl)acetic acid or ((7R)-3-((2′-fluoro-5′-methoxy-2-(2-methyl-2-propanyl)-4-biphenylyl)methoxy)bicycle[4.2.0]octa-1,3,5-trien-7-yl)acetic acid], the EC50 is 1000 to 10000 nM.

`COc1ccc(F)c(-c2ccc(COc3ccc4c(c3)C[C@H]4CC(=O)O)cc2C(C)(C)C)c1` (single isomer, unassigned) [Example 30, ((7S)-3-((2′-Fluoro-5′-methoxy-2-(2-methyl-2-propanyl)-4-biphenylyl)methoxy)bicycle[4.2.0]octa-1,3,5-trien-7-yl)acetic acid or ((7R)-3-((2′-fluoro-5′-methoxy-2-(2-methyl-2-propanyl)-4-biphenylyl)methoxy)bicycle[4.2.0]octa-1,3,5-trien-7-yl)acetic acid] yielded an EC50 of 1000 to 10000 nM.

The compound `COc1ccc(F)c(-c2ccc(COc3ccc4c(c3)CC[C@@H]4CC(=O)O)cc2C(C)(C)C)c1` (single isomer, unassigned) [Example 31, ((1S)-5-((2′-Fluoro-5′-methoxy-2-(2-methyl-2-propanyl)-4-biphenylyl)methoxy)-2,3-dihydro-1H-inden-1-yl)acetic acid or ((1R)-5-((2′-fluoro-5′-methoxy-2-(2-methyl-2-propanyl)-4-biphenylyl)methoxy)-2,3-dihydro-1H-inden-1-yl)acetic acid] returned an EC50 of 1000 to 10000 nM.

Consider `COc1ccc(F)c(-c2ccc(COc3ccc4c(c3)CC[C@H]4CC(=O)O)cc2C(C)(C)C)c1` (single isomer, unassigned) [Example 32, ((1S)-5-((2′-Fluoro-5′-methoxy-2-(2-methyl-2-propanyl)-4-biphenylyl)methoxy)-2,3-dihydro-1H-inden-1-yl)acetic acid or ((1R)-5-((2′-fluoro-5′-methoxy-2-(2-methyl-2-propanyl)-4-biphenylyl)methoxy)-2,3-dihydro-1H-inden-1-yl)acetic acid], for which the EC50 is 1000 to 10000 nM.

`COc1cc(-c2ccc(COc3ccc4c(c3)[C@H](CC(=O)O)CCC4)cc2[C@H]2CCCC2(C)C)c(F)cn1` (single isomer, unassigned) [Example 47] had an EC50 of 1000 to 10000 nM.

With `COc1cc(-c2ccc(COc3ccc4c(c3)[C@](C)(CC(=O)O)CCC4)cc2[C@H]2CCCC2(C)C)c(F)cn1` (single isomer, unassigned) [Example 49], the EC50 was 100 to 1000 nM.

`COc1ccc(F)c(-c2ccc(COc3ccc4c(c3)[C@H]([C@@H](C)C(=O)O)CC4)cc2C(C)(C)C)c1` [Example 13] came in with an EC50 of 100 to 1000 nM.

The compound `COc1cc(-c2ccc(COc3ccc4c(c3F)C(C)(CC(=O)O)CC4)cc2C(OC)C(C)(C)C)c(F)cn1` [Example 41, {(S)-7-Fluoro-6-[4-(5-fluoro-2-methoxy-pyridin-4-yl)-3-((S)-1-methoxy-2,2-dimethyl-propyl)-benzyloxy]-1-methyl-indan-1-yl}-acetic acid or stereoisomer thereof] returned a concentration giving a half-maximal response (EC50) of 1000 to 10000 nM.
